Results: patent US11173151B2, “Substituted triazole derivatives and uses thereof” (BAYER AKTIENGESELLSCHAFT, priority 2017, dated 2021)

Key:
[1] = biological target: T1, human V2 receptor (Homo sapiens, UniProt P30518); experiment: Cellular in vitro assay for determining vasopressin receptor activity, V2 receptor cell line (CHO, CRE-luciferase); format: cell-based; conditions: CHO cell line transfected with human V2 receptor; [Arg8]-vasopressin at EC50 concentration, 3 hours; read-out: IC50 hV2
T1 construct: expressed in transfected cells; host or cells: CHO K1 (ATCC) expressing firefly luciferase under a CRE-responsive promoter

[2] = biological target: T2, human V1a receptor (Homo sapiens, UniProt P37288); experiment: Cellular in vitro assay for determining vasopressin receptor activity, V1a receptor cell line (CHO, aequorin luminescence); format: cell-based; conditions: for IC50: CHO cell line transfected with human V1a receptor, [Arg]-vasopressin at EC50 concentration, read-out: IC50 hV1a; for ratio IC50 hV2/hV1a: selectivity ratio IC50 hV2 / IC50 hV1a
T2 construct: expressed in transfected cells; host or cells: CHO K1 (ATCC), also stably transfected with a modified aequorin
How it was run: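 IC50 from inhibition of [Arg]-vasopressin (EC50 concentration)-evoked aequorin luminescence in CHO K1 cells, with 10-min compound pretreatment.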

T1 sequence (P30518 whole entry): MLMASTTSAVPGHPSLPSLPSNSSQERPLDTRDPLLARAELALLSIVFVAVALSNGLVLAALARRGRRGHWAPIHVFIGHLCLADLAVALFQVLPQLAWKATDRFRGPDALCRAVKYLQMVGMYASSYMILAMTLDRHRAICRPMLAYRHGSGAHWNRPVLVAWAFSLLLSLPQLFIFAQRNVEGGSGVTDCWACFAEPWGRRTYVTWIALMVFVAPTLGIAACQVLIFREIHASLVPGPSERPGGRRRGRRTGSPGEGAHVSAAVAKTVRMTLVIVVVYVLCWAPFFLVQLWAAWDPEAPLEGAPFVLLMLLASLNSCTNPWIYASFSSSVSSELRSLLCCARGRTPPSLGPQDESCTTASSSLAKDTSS
T2 sequence (P37288 whole entry): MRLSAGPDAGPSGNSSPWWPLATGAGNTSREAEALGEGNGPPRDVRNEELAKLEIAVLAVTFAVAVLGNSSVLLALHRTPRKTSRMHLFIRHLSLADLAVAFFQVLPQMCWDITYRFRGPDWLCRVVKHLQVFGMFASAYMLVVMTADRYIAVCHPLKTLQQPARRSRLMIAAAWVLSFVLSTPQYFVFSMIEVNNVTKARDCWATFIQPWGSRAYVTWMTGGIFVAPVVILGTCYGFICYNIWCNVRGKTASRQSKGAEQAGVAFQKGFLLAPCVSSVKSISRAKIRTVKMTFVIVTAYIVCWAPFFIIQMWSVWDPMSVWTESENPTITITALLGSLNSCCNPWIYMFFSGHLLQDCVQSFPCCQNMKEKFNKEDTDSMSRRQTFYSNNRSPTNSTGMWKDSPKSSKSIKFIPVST

| SMILES | IC50 [1] [nM] | IC50 [2] [nM] | ratio IC50 hV2/hV1a [2] |
| --- | --- | --- | --- |
| CC(C)CN(C)C(=O)c1ccccc1-n1cnc(Cn2nc(-c3ccc(Cl)cc3)n(C[C@H](O)C(F)(F)F)c2=O)n1 [Example 356, 2-[3-({3-(4-Chlorophenyl)-5-oxo-4-[(2S)-3,3,3-trifluoro-2-hydroxypropyl]-4,5-dihydro-1H-1,2,4-triazol-1-yl}methyl)-1H-1,2,4-triazol-1-yl]-N-methyl-N-(2-methylpropyl)benzamide] | 1890 | 2.45 | 771.4 |
| CCN1CCN(C(=O)c2ccccc2-n2cnc(Cn3nc(-c4ccc(Cl)cc4)n(C[C@H](O)C(F)(F)F)c3=O)n2)CC1 [Example 358, 5-(4-Chlorophenyl)-2-[(1-{2-[(4-ethylpiperazin-1-yl)carbonyl]phenyl}-1H-1,2,4-triazol-3-yl)methyl]-4-[(2S)-3,3,3-trifluoro-2-hydroxypropyl]-2,4-dihydro-3H-1,2,4-triazol-3-one] | 2750 | 18 | 152.8 |
| CN(CCC#N)C(=O)c1ccccc1-n1cnc(Cn2nc(-c3ccc(Cl)cc3)n(C[C@H](O)C(F)(F)F)c2=O)n1 [Example 362, 2-[3-({3-(4-Chlorophenyl)-5-oxo-4-[(2S)-3,3,3-trifluoro-2-hydroxypropyl]-4,5-dihydro-1H-1,2,4-triazol-1-yl}methyl)-1H-1,2,4-triazol-1-yl]-N-(2-cyanoethyl)-N-methylbenzamide] | 2500 | 4.85 | 515.5 |
| O=C(NCC(F)(F)F)c1cccc(Cl)c1-n1cnc(Cn2nc(-c3ccc(Cl)cc3)n(C[C@@H](O)C(F)(F)F)c2=O)n1 [Example 366, 3-Chloro-2-[3-({3-(4-chlorophenyl)-5-oxo-4-[(2R)-3,3,3-trifluoro-2-hydroxypropyl]-4,5-dihydro-1H-1,2,4-triazol-1-yl}methyl)-1H-1,2,4-triazol-1-yl]-N-(2,2,2-trifluoroethyl)benzamide] | 3700 | 195 | 19.0 |
| O=C(NCC1CC1)c1cccc(Cl)c1-n1cnc(Cn2nc(-c3ccc(Cl)cc3)n(C[C@H](O)C(F)(F)F)c2=O)n1 [Example 370, 3-Chloro-2-[3-({3-(4-chlorophenyl)-5-oxo-4-[(2S)-3,3,3-trifluoro-2-hydroxypropyl]-4,5-dihydro-1H-1,2,4-triazol-1-yl}methyl)-1H-1,2,4-triazol-1-yl]-N-(cyclopropylmethyl)benzamide] | 420 | 33 | 12.7 |
| O=C(NC1CC1F)c1cccc(Cl)c1-n1cnc(Cn2nc(-c3ccc(Cl)cc3)n(C[C@H](O)C(F)(F)F)c2=O)n1 (stereo partly drawn) [Example 373, 3-Chloro-2-[3-({3-(4-chlorophenyl)-5-oxo-4-[(2S)-3,3,3-trifluoro-2-hydroxypropyl]-4,5-dihydro-1H-1,2,4-triazol-1-yl}methyl)-1H-1,2,4-triazol-1-yl]-N-[2-fluorocyclopropyl]benzamide] | 1030 | 4.75 | 216.8 |
| CC1(C)CN(C(=O)c2cccc(Cl)c2-n2cnc(Cn3nc(-c4ccc(Cl)cc4)n(C[C@H](O)C(F)(F)F)c3=O)n2)CCO1 [Example 375, 2-[(1-{2-Chloro-6-[(2,2-dimethylmorpholin-4-yl)carbonyl]phenyl}-1H-1,2,4-triazol-3-yl)methyl]-5-(4-chlorophenyl)-4-[(2S)-3,3,3-trifluoro-2-hydroxypropyl]-2,4-dihydro-3H-1,2,4-triazol-3-one] | 21000 | 710 | 29.6 |
| O=C(NC1CC(F)(F)C1)c1cccc(Cl)c1-n1cnc(Cn2nc(-c3ccc(Cl)cc3)n(C[C@H](O)C(F)(F)F)c2=O)n1 [Example 376, 3-Chloro-2-[3-({3-(4-chlorophenyl)-5-oxo-4-[(2S)-3,3,3-trifluoro-2-hydroxypropyl]-4,5-dihydro-1H-1,2,4-triazol-1-yl}methyl)-1H-1,2,4-triazol-1-yl]-N-(3,3-difluorocyclobutyl)benzamide] | 570 | 73.5 | 7.8 |
| O=C(c1cccc(Cl)c1-n1cnc(Cn2nc(-c3ccc(Cl)cc3)n(C[C@H](O)C(F)(F)F)c2=O)n1)N1CCCCC1 [Example 381, 5-(4-Chlorophenyl)-2-({1-[2-chloro-6-(piperidin-1-ylcarbonyl)phenyl]-1H-1,2,4-triazol-3-yl}methyl)-4-[(2S)-3,3,3-trifluoro-2-hydroxypropyl]-2,4-dihydro-3H-1,2,4-triazol-3-one] | 2250 | 17 | 132.4 |

Further molecules by falling IC50 [1], results first:

| IC50 [1] [nM] | IC50 [2] [nM] | ratio IC50 hV2/hV1a [2] | SMILES |
| --- | --- | --- | --- |
| 6250 | 78 | 80.1 | O=C(c1cccc(Cl)c1-n1cnc(Cn2nc(-c3ccc(Cl)cc3)n(C[C@H](O)C(F)(F)F)c2=O)n1)N1CCOCC1 [Example 382, 2-({1-[2-Chloro-6-(morpholin-4-ylcarbonyl)phenyl]-1H-1,2,4-triazol-3-yl}methyl)-5-(4-chlorophenyl)-4-[(2S)-3,3,3-trifluoro-2-hydroxypropyl]-2,4-dihydro-3H-1,2,4-triazol-3-one] |
| 3400 | 52.5 | 64.8 | NC(=O)[C@@H]1CC(F)(F)CN1C(=O)c1cccc(Cl)c1-n1cnc(Cn2nc(-c3ccc(Cl)cc3)n(C[C@H](O)C(F)(F)F)c2=O)n1 [Example 372, 1-{3-Chloro-2-[3-({3-(4-chlorophenyl)-5-oxo-4-[(2S)-3,3,3-trifluoro-2-hydroxypropyl]-4,5-dihydro-1H-1,2,4-triazol-1-yl}methyl)-1H-1,2,4-triazol-1-yl]benzoyl}-4,4-difluoro-L-prolinamide] |
| 2450 | 33 | 74.2 | CN1CCN(C(=O)c2ccccc2-n2cnc(Cn3nc(-c4ccc(Cl)cc4)n(C[C@H](O)C(F)(F)F)c3=O)n2)CC1 [Example 357, 5-(4-Chlorophenyl)-2-[(1-{2-[(4-methylpiperazin-1-yl)carbonyl]phenyl}-1H-1,2,4-triazol-3-yl)methyl]-4-[(2S)-3,3,3-trifluoro-2-hydroxypropyl]-2,4-dihydro-3H-1,2,4-triazol-3-one] |
| 1450 | 47.5 | 30.5 | O=C(c1cccc(Cl)c1-n1cnc(Cn2nc(-c3ccc(Cl)cc3)n(C[C@H](O)C(F)(F)F)c2=O)n1)N1CCC(F)(F)C1 [Example 374, 2-[(1-{2-Chloro-6-[(3,3-difluoropyrrolidin-1-yl)carbonyl]phenyl}-1H-1,2,4-triazol-3-yl)methyl]-5-(4-chlorophenyl)-4-[(2S)-3,3,3-trifluoro-2-hydroxypropyl]-2,4-dihydro-3H-1,2,4-triazol-3-one] |
| 920 | 30 | 30.7 | O=C(NCC(F)(F)F)c1cccc(Cl)c1-n1cnc(Cn2nc(-c3ccc(Cl)cc3)n(C[C@H](O)C(F)(F)F)c2=O)n1 [Example 365, 3-Chloro-2-[3-({3-(4-chlorophenyl)-5-oxo-4-[(2S)-3,3,3-trifluoro-2-hydroxypropyl]-4,5-dihydro-1H-1,2,4-triazol-1-yl}methyl)-1H-1,2,4-triazol-1-yl]-N-(2,2,2-trifluoroethyl)benzamide] |
| 900 | 6.5 | 138.5 | O=C(c1ccccc1-n1cnc(Cn2nc(-c3ccc(Cl)cc3)n(C[C@H](O)C(F)(F)F)c2=O)n1)N1CCCCCCC1 [Example 359, 2-({1-[2-(Azocan-1-ylcarbonyl)phenyl]-1H-1,2,4-triazol-3-yl}methyl)-5-(4-chlorophenyl)-4-[(2S)-3,3,3-trifluoro-2-hydroxypropyl]-2,4-dihydro-3H-1,2,4-triazol-3-one] |
| 470 | 2.8 | 167.9 | O=C(NC1CC1)c1cccc(Cl)c1-n1cnc(Cn2nc(-c3ccc(Cl)cc3)n(C[C@H](O)C(F)(F)F)c2=O)n1 [Example 369, 3-Chloro-2-[3-({3-(4-chlorophenyl)-5-oxo-4-[(2S)-3,3,3-trifluoro-2-hydroxypropyl]-4,5-dihydro-1H-1,2,4-triazol-1-yl}methyl)-1H-1,2,4-triazol-1-yl]-N-cyclopropylbenzamide] |
| 345 | 5.5 | 62.7 | O=C(NCc1ccccc1F)c1ccccc1-n1cnc(Cn2nc(-c3ccc(Cl)cc3)n(C[C@H](O)C(F)(F)F)c2=O)n1 [Example 363, 2-[3-({3-(4-Chlorophenyl)-5-oxo-4-[(2S)-3,3,3-trifluoro-2-hydroxypropyl]-4,5-dihydro-1H-1,2,4-triazol-1-yl}methyl)-1H-1,2,4-triazol-1-yl]-N-(2-fluorobenzyl)benzamide] |
| 97.5 | 2.55 | 38.2 | Cc1cccc(NC(=O)c2ccccc2-n2cnc(Cn3nc(-c4ccc(Cl)cc4)n(C[C@H](O)C(F)(F)F)c3=O)n2)c1 [Example 361, 2-[3-({3-(4-Chlorophenyl)-5-oxo-4-[(2S)-3,3,3-trifluoro-2-hydroxypropyl]-4,5-dihydro-1H-1,2,4-triazol-1-yl}methyl)-1H-1,2,4-triazol-1-yl]-N-(3-methylphenyl)benzamide] |
| 14.9 | 0.74 | 20.1 | O=C(Nc1ccccc1)c1ccccc1-n1cnc(Cn2nc(-c3ccc(Cl)cc3)n(C[C@H](O)C(F)(F)F)c2=O)n1 [Example 360, 2-[3-({3-(4-Chlorophenyl)-5-oxo-4-[(2S)-3,3,3-trifluoro-2-hydroxypropyl]-4,5-dihydro-1H-1,2,4-triazol-1-yl}methyl)-1H-1,2,4-triazol-1-yl]-N-phenylbenzamide] |
